Values after ≈ are worked out from the molar mass of the structure shown. Active and inactive are the calls of the source. No cut-off for these calls is given here.
Experiments:
MCF7 = test: Cytotoxicity against human MCF7 cells; type: functional, cell-based
CHO = test: Cytotoxicity against CHO cells; type: cell-based; conditions: Cricetulus griseus
A-431 = test: Cytotoxicity against human A431 cells; type: functional, cell-based
COLO 205 = test: Cytotoxicity against human COLO205 cells; type: functional, cell-based
A549 = test: Cytotoxicity against human A549 cells; type: functional, cell-based

Structure (SMILES)	IC50 (MCF7) [µg/mL]	IC50 (CHO) [µg/mL]	IC50 (A-431) [µg/mL]	IC50 (COLO 205) [µg/mL]	IC50 (A549) [µg/mL]	Activity (A549)
CC1=CC(=O)[C@H]2C(C)(C)CCC[C@]2(C)[C@@]1(O)/C=C/c1ccoc1	30.9 (≈ 98.4 µM)	15.7 (≈ 49.9 µM)	26.1 (≈ 83 µM)	24 (≈ 76.4 µM)	41.2 (≈ 131 µM)	–
CC1=C(O)C(=O)[C@H]2C(C)(C)CCC[C@]2(C)[C@H]1/C=C/C1=CC(=O)OC1	21.1 (≈ 63.7 µM)	7.69 (≈ 23.3 µM)	16 (≈ 48.5 µM)	12 (≈ 36.4 µM)	38 (≈ 115 µM)	–
O=c1c(O)c(-c2ccccc2)oc2cc(O)cc(O)c12 [GALANGIN]	53.1 (≈ 196 µM)	27 (≈ 99.8 µM)	39.4 (≈ 146 µM)	33.1 (≈ 123 µM)	54.2 (≈ 201 µM)	–
C=C1CC(=O)[C@H]2C(C)(C)CCC[C@]2(C)[C@H]1C/C=C1\CC(O)OC1=O (stereo not given in full)	49.3 (≈ 148 µM)	20.4 (≈ 61.2 µM)	30.5 (≈ 91.8 µM)	27.6 (≈ 82.9 µM)	–	inactive
COc1cc(O)c2c(=O)cc(-c3ccccc3)oc2c1 [TECHTOCHRYSIN]	51 (≈ 190 µM)	23.5 (≈ 87.7 µM)	39 (≈ 145 µM)	37.1 (≈ 138 µM)	49.6 (≈ 185 µM)	–
C=C1C[C@@H](O)[C@H]2C(C)(C)CCC[C@]2(C)[C@H]1/C=C/c1ccoc1 [YUNNACORONARIN A]	28 (≈ 93.4 µM)	17.9 (≈ 59.5 µM)	29 (≈ 96.6 µM)	27.1 (≈ 90.3 µM)	46.6 (≈ 155 µM)	–
C=C1[C@@H](O)C[C@H]2C(C)(C)CCC[C@]2(C)[C@H]1C/C=C1/CCOC1=O	33.5 (≈ 105 µM)	21.3 (≈ 67 µM)	31.5 (≈ 99 µM)	29.8 (≈ 93.6 µM)	–	inactive
